Measured values reported in ChEMBL document CHEMBL2321764, “Synthesis and antibacterial activities of new piperidine substituted (5R)-[1,2,3]triazolylmethyl and (5R)-[(4-F-[1,2,3]triazolyl)methyl] oxazolidinones” (Bioorg Med Chem Lett, 2013).
Converted amounts (≈) assume the structure as drawn.

What follows are molecules tested on Streptococcus pyogenes (assay: Antibacterial activity against Streptococcus pyogenes 308A by agar dilution method).
Type: functional

Compound	MIC
N#CC1=CCN(c2ccc(N3C[C@H](Cn4cc(F)nn4)OC3=O)cc2F)CC1	50 µg/mL (≈ 129 µM)
CCOC(=O)C(Cl)=C1CCN(c2ccc(N3C[C@H](Cn4ccnn4)OC3=O)cc2F)CC1	6.25 µg/mL (≈ 13.5 µM)
CC(=O)NC[C@H]1CN(c2ccc(N3CCC(=CC#N)CC3)c(F)c2)C(=O)O1	0.78 µg/mL (≈ 2.09 µM)
N#CC1(O)CCN(c2ccc(N3C[C@H](Cn4ccnn4)OC3=O)cc2F)CC1	0.78 µg/mL (≈ 2.02 µM)
CCOC(=O)C=C1CCN(c2ccc(N3C[C@H](Cn4cc(F)nn4)OC3=O)cc2F)CC1	50 µg/mL (≈ 112 µM)

Each molecule was assayed on Staphylococcus aureus (assay: Antibacterial activity against methicillin-resistant Staphylococcus aureus C463 by agar dilution method).
Type: functional

Compound	MIC
N#CC1=CCN(c2ccc(N3C[C@H](Cn4cc(F)nn4)OC3=O)cc2F)CC1	100 µg/mL (≈ 259 µM)
CCOC(=O)C(Cl)=C1CCN(c2ccc(N3C[C@H](Cn4ccnn4)OC3=O)cc2F)CC1	25 µg/mL (≈ 53.9 µM)
CC(=O)NC[C@H]1CN(c2ccc(N3CCC(=CC#N)CC3)c(F)c2)C(=O)O1	3.12 µg/mL (≈ 8.38 µM)
N#CC1(O)CCN(c2ccc(N3C[C@H](Cn4ccnn4)OC3=O)cc2F)CC1	3.12 µg/mL (≈ 8.07 µM)
CCOC(=O)C=C1CCN(c2ccc(N3C[C@H](Cn4cc(F)nn4)OC3=O)cc2F)CC1	100 µg/mL (≈ 223 µM)

What follows are molecules tested on Enterococcus faecium (assay: Antibacterial activity against vancomycin-resistant Enterococcus faecium C803 by agar dilution method).
Type: functional

Compound	MIC
N#CC1=CCN(c2ccc(N3C[C@H](Cn4cc(F)nn4)OC3=O)cc2F)CC1	50 µg/mL (≈ 129 µM)
CCOC(=O)C(Cl)=C1CCN(c2ccc(N3C[C@H](Cn4ccnn4)OC3=O)cc2F)CC1	25 µg/mL (≈ 53.9 µM)
CC(=O)NC[C@H]1CN(c2ccc(N3CCC(=CC#N)CC3)c(F)c2)C(=O)O1	3.12 µg/mL (≈ 8.38 µM)
N#CC1(O)CCN(c2ccc(N3C[C@H](Cn4ccnn4)OC3=O)cc2F)CC1	3.12 µg/mL (≈ 8.07 µM)
CCOC(=O)C=C1CCN(c2ccc(N3C[C@H](Cn4cc(F)nn4)OC3=O)cc2F)CC1	100 µg/mL (≈ 223 µM)

What follows are molecules tested on Streptococcus agalactiae (assay: Antibacterial activity against Streptococcus agalactiae ATCC 2901 by agar dilution method).
Type: functional

Compound	MIC
N#CC1=CCN(c2ccc(N3C[C@H](Cn4cc(F)nn4)OC3=O)cc2F)CC1	100 µg/mL (≈ 259 µM)
CCOC(=O)C(Cl)=C1CCN(c2ccc(N3C[C@H](Cn4ccnn4)OC3=O)cc2F)CC1	6.25 µg/mL (≈ 13.5 µM)
CC(=O)NC[C@H]1CN(c2ccc(N3CCC(=CC#N)CC3)c(F)c2)C(=O)O1	0.78 µg/mL (≈ 2.09 µM)
N#CC1(O)CCN(c2ccc(N3C[C@H](Cn4ccnn4)OC3=O)cc2F)CC1	1.56 µg/mL (≈ 4.04 µM)
CCOC(=O)C=C1CCN(c2ccc(N3C[C@H](Cn4cc(F)nn4)OC3=O)cc2F)CC1	100 µg/mL (≈ 223 µM)

What follows are molecules tested on Staphylococcus (assay: Antibacterial activity against methicillin-resistant coagulase negative Staphylococcus by agar dilution method).
Type: functional

Compound	MIC
N#CC1=CCN(c2ccc(N3C[C@H](Cn4cc(F)nn4)OC3=O)cc2F)CC1	100 µg/mL (≈ 259 µM)
CCOC(=O)C(Cl)=C1CCN(c2ccc(N3C[C@H](Cn4ccnn4)OC3=O)cc2F)CC1	25 µg/mL (≈ 53.9 µM)
CC(=O)NC[C@H]1CN(c2ccc(N3CCC(=CC#N)CC3)c(F)c2)C(=O)O1	3.12 µg/mL (≈ 8.38 µM)
N#CC1(O)CCN(c2ccc(N3C[C@H](Cn4ccnn4)OC3=O)cc2F)CC1	3.12 µg/mL (≈ 8.07 µM)
CCOC(=O)C=C1CCN(c2ccc(N3C[C@H](Cn4cc(F)nn4)OC3=O)cc2F)CC1	100 µg/mL (≈ 223 µM)

These molecules were tested on Enterococcus faecalis (assay: Antibacterial activity against vancomycin-resistant Enterococcus faecalis C474 by agar dilution method).
Type: functional

Compound	MIC
N#CC1=CCN(c2ccc(N3C[C@H](Cn4cc(F)nn4)OC3=O)cc2F)CC1	50 µg/mL (≈ 129 µM)
CCOC(=O)C(Cl)=C1CCN(c2ccc(N3C[C@H](Cn4ccnn4)OC3=O)cc2F)CC1	12.5 µg/mL (≈ 26.9 µM)
CC(=O)NC[C@H]1CN(c2ccc(N3CCC(=CC#N)CC3)c(F)c2)C(=O)O1	3.12 µg/mL (≈ 8.38 µM)
N#CC1(O)CCN(c2ccc(N3C[C@H](Cn4ccnn4)OC3=O)cc2F)CC1	3.12 µg/mL (≈ 8.07 µM)
CCOC(=O)C=C1CCN(c2ccc(N3C[C@H](Cn4cc(F)nn4)OC3=O)cc2F)CC1	100 µg/mL (≈ 223 µM)

Each molecule was assayed on Haemophilus influenzae (assay: Antibacterial activity against betalactamase positive Haemophilus influenzae by agar dilution method).
Type: functional

Compound	MIC
N#CC1=CCN(c2ccc(N3C[C@H](Cn4cc(F)nn4)OC3=O)cc2F)CC1	6.26 µg/mL (≈ 16.2 µM)
CCOC(=O)C(Cl)=C1CCN(c2ccc(N3C[C@H](Cn4ccnn4)OC3=O)cc2F)CC1	6.25 µg/mL (≈ 13.5 µM)
CC(=O)NC[C@H]1CN(c2ccc(N3CCC(=CC#N)CC3)c(F)c2)C(=O)O1	0.78 µg/mL (≈ 2.09 µM)
N#CC1(O)CCN(c2ccc(N3C[C@H](Cn4ccnn4)OC3=O)cc2F)CC1	1.56 µg/mL (≈ 4.04 µM)
CCOC(=O)C=C1CCN(c2ccc(N3C[C@H](Cn4cc(F)nn4)OC3=O)cc2F)CC1	6.25 µg/mL (≈ 14 µM)

These molecules were tested on Streptococcus pneumoniae (assay: Antibacterial activity against penicillin-resistant Streptococcus pneumoniae C402 by agar dilution method).
Type: functional

Compound	MIC
N#CC1=CCN(c2ccc(N3C[C@H](Cn4cc(F)nn4)OC3=O)cc2F)CC1	6.25 µg/mL (≈ 16.2 µM)
CCOC(=O)C(Cl)=C1CCN(c2ccc(N3C[C@H](Cn4ccnn4)OC3=O)cc2F)CC1	12.5 µg/mL (≈ 26.9 µM)
CC(=O)NC[C@H]1CN(c2ccc(N3CCC(=CC#N)CC3)c(F)c2)C(=O)O1	0.39 µg/mL (≈ 1.05 µM)
N#CC1(O)CCN(c2ccc(N3C[C@H](Cn4ccnn4)OC3=O)cc2F)CC1	0.78 µg/mL (≈ 2.02 µM)
CCOC(=O)C=C1CCN(c2ccc(N3C[C@H](Cn4cc(F)nn4)OC3=O)cc2F)CC1	6.25 µg/mL (≈ 14 µM)
